Test results taken from patent US20080138326A1, “Method for cancer treatment, carcinogenesis suppression or mitigation of adverse reactions of anticancer agents” (Kaneka Corporation, priority 2006, published 2008).
Marks after values point to notes of the source that are not given here.

Experiments:
[1] = tested on: Human breast cancer-derived cells (MCF-7); experiment: Suppressive effect on cell activation in cancer-derived cells (intracellular ATP content); assay type: cell-based; settings: 24 hours; for intracellular ATP content compared with control group: 80 μg/ml, Tween 80 control = 100%, P<0.0011
Protocol: The reduced coenzyme Q10 obtained in Production Example 1 and the oxidized coenzyme Q10 used as a raw material in Production Example 1 were respectively dissolved in undiluted Tween 80 (MP Biomedicals) to give test samples.
Human breast cancer-derived cells (MCF-7, supplied by ATCC) were cultured in a Dulbecco's modified MEM medium (GIBCO) supplemented with 200 U of penicillin, […] streptomycin, and 10% fetal bovine serum at 37° C. in the presence of 5% CO2. After becoming confluent, the cells were sown to a 96-well microplate (IWAKI) at 2.0×10^4 cells per well. Twenty-four hours after the sowing, the medium was replaced with a Dulbecco's modified MEM medium containing 0.5% fetal bovine serum, and the above test samples were added to said medium such that the concentrations of Tween 80 were to be […], 0.025 and 0.05% (the concentrations of the reduced coenzyme Q10 or oxidized coenzyme Q10 in the medium were 20, 40 and 80 μg/ml). Tween 80 alone was added to the Dulbecco's modified MEM medium containing 0.5% fetal bovine serum such that the concentrations were to be the same, and the resulting solution was used as a control. Twenty-four hours later, the medium was removed, and the microplate was washed with PBS (GIBCO), after which intracellular ATP contents were determined using an ATP assay kit (Perkin-Elmer) and compared. The results are shown in FIG. 2, where the determined intracellular ATP amount for the control sample is given a value of 100% and the determined intracellular ATP amounts for the test samples were compared to this value.

[2] = tested on: rats; settings: 1.2 g/kg/day for 52 consecutive weeks; cited from earlier work
[3] = tested on: Normal human skin fibroblasts (NHDF); experiment: Promotive effect on cell activation in skin fibroblasts (intracellular ATP content); assay type: cell-based; settings: 48 hours; for ATP level: HCO-60 solvent; for intracellular ATP levels compared with solvent control: 0.12 and 0.98 μg/ml
Protocol: The reduced coenzyme Q10 obtained in Production Example 1 and the oxidized coenzyme Q10 used as a raw material in Production Example 1 were respectively dissolved in undiluted HCO-60 (polyoxyethylene hydrogenated castor oil, Nihon Surfactant Kogyo K.K.) to give test samples.
Normal human skin fibroblasts (NHDF, Kurabo Industries) were cultured in a Medium 106S basal medium (Kurabo Industries) supplemented with 2% fetal bovine serum, 10 μg/ml heparin, 1 μg/ml hydrocortisone, 10 ng/ml human recombinant […], and human recombinant basic fibroblast growth factor 3 ng/ml, at 37° C. in the presence of 5% CO2. After becoming confluent, the cells were sown to a 96-well microplate at 2.0×10^3 cells per well. The medium used at the time of cell sowing was a Medium 106S (Kurabo Industries, Ltd.) supplemented with 2% fetal bovine serum, 10 μg/ml heparin, and 1 μg/ml hydrocortisone. After cultivation for 24 hours, the test samples were replaced with the same medium added with the oxidized or reduced coenzyme Q10 such that the concentrations were to be 0.12 and 0.98 μg/ml, and the cells were further cultured for 48 hours. The same amount of HCO-60 alone was added to the medium, and the resulting solution was used as a control. The medium was then removed, and the microplate was washed with PBS (GIBCO), after which intracellular ATP contents were determined using an ATP assay kit (Perkin-Elmer) and compared.
For statistical analysis, a parametric multiple comparison (Tukey type) was performed. In comparison with the solvent-only control group, * indicates a significance level of less than 5%, and ** indicates a significance level of less than 1%. In comparison with oxidized coenzyme Q10, † indicates a significance level of less than 5%.

[4] = tested on: Normal human skin fibroblasts (NHDF); experiment: Suppressive effect on LDL-induced cell proliferation (BrdU incorporation ELISA); assay type: cell-based; settings: LDL containing reduced coenzyme Q10 (2.44-78.2 μg/ml) vs LDL control sample = 100%; 48 hours
Protocol: Human LDL (BIODESIGN) and Medium 106S (Kurabo Industries, Ltd.), a basal medium for normal human skin fibroblasts, were mixed to prepare a LDL-containing medium. The reduced coenzyme Q10 obtained in Production Example 1 was dissolved into the LDL-containing medium at 50° C. with sonication. This was followed by membrane filtration, and the filtrate obtained was used as the test sample stock solution.
Likewise, the LDL-containing medium as is (without adding reduced coenzyme Q10) was subjected to membrane filtration and the filtrate obtained was used as the control sample stock solution. The LDL concentrations of the test sample stock solution and the control sample stock solution were same.
The concentration of reduced coenzyme Q10 in the test sample stock solution was measured by high performance liquid chromatography (column: length 25 cm, diameter 4.6 mm, YMC-PACK ODS-A (YMC), mobile phase: methanol-hexane (85:15, v/v), detection wavelength: 290 nm, flow rate: 1.0 mL/min). As a result, the weight percent of reduced coenzyme Q10 based on the total weight of coenzyme Q10 in the test sample stock solution was calculated to be 84.1% by weight, and the concentration of reduced coenzyme Q10 in the test sample stock solution was calculated to be 234.68 μg/ml. […]

[5] = tested on: aberrant crypt foci (ACF) in the rat large intestine; experiment: Rat colorectal carcinogenesis model (azoxymethane-initiated aberrant crypt foci); assay type: in vivo; settings: four weeks; for Number of ACFs, 1 crypt, percent of control group / Number of ACFs, 2 crypts, percent of control group / Number of ACFs, 3 crypts, percent of control group / Number of ACFs, 4 crypts or more, percent of control group / Total ACF number/large intestine specimen, percent of control group / Total ACs number/large intestine specimen, percent of control group: control group = 100%; for Mean ACs number/focus / Number of ACFs formed in the large intestine, 1 crypt / Number of ACFs formed in the large intestine, 2 crypts / Number of ACFs formed in the large intestine, 3 crypts / Number of ACFs formed in the large intestine, 4 crypts or more / Total ACF number/large intestine specimen / Total ACs number/large intestine specimen: mean ± standard deviation
Protocol: To examine the effect of reduced coenzyme Q10 on carcinogenesis, a test was performed using a rat colorectal carcinogenesis model. This test method represents a rodent model of two-stage carcinogenesis, targeting the rat large intestine. Because carcinogenesis research using this test method is widely conducted for screening for cancer prophylactic agents and other purposes, the test results are sufficiently reliable.
Twenty-seven male F344 rats at 6 weeks of age were divided into three groups (9 animals/group) by computer-based randomized block design in a way such that no statistically significant difference would be produced in mean body weight. For initiation treatment for colorectal carcinogenesis, each rat was given azoxymethane (AOM) by subcutaneous administration at a dose of 15 mg/kg body weight once weekly for two weeks.
Starting on the day before administration of AOM, reduced coenzyme Q10 in solution in vehicle (olive oil) at a concentration of 20 or 50 mg/ml was given by gavage at doses of 0 (control group, group 1), 20, and 50 mg/kg (groups 2 and 3) on consecutive days for four weeks. The control group (group 1) received only the vehicle for administering reduced coenzyme Q10.
Four weeks after initial administration of reduced coenzyme Q10, all rats were autopsied, and the large intestine (colon and rectum, excluding the cecum) was extirpated. The large intestine with its ends ligated was fixed with injected 10% neutrally buffered formalin solution, after which the large intestine was incised and applied over filter paper flatly. Subsequently, the large intestine was post-fixed with 10% neutrally buffered formalin solution. After fixation, the large intestine was stained with 0.2% Methylene Blue solution in physiological saline for about 10 minutes, and the mucosal surface of the large intestine was examined using a stereomicroscope, whereby aberrant crypt foci (ACF), a form of precancerous lesion in colorectal cancer, were counted.
ACF was counted and classified by number of crypts present therein. Data were obtained as total ACF number per large intestine (colon and rectum) specimen, total crypt number per large intestine specimen, and mean crypt number per ACF (Table 2).
Furthermore, total ACF number per large intestine specimen was calculated according to the number of crypts in each ACF (Table 3).
For statistical analysis, Bartlett's homogeneity test was performed to compare group 1 and groups 2 and 3. […] In the case of non-homogenous dispersion, Dunnett's multiple comparison test based on a non-parametric approach (joint ranking method) was performed.

## COC1=C(OC)C(=O)C(C/C=C(\C)CC/C=C(\C)CC/C=C(\C)CC/C=C(\C)CC/C=C(\C)CC/C=C(\C)CC/C=C(\C)CC/C=C(\C)CC/C=C(\C)CCC=C(C)C)=C(C)C1=O [Oxidized coenzyme Q10, oxidized coenzyme Q10, reference compound]
[1]
  intracellular ATP content compared with control group: decreased significantly
[2]
  toxic signs: no toxic signs were observed
[3]; 0.12 μg/ml
  ATP level: 183.23 ± 62.70* nM
[3]; 0.98 μg/ml
  ATP level: 224.84 ± 43.55* nM
[3]
  intracellular ATP levels compared with solvent control: significantly elevated

## COc1c(O)c(C)c(C/C=C(\C)CC/C=C(\C)CC/C=C(\C)CC/C=C(\C)CC/C=C(\C)CC/C=C(\C)CC/C=C(\C)CC/C=C(\C)CC/C=C(\C)CCC=C(C)C)c(O)c1OC [Reduced coenzyme Q10, reduced coenzyme Q10]
[4]
  elevation of cell division activity (BrdU incorporated in the nucleus) induced by LDL: suppressed
[1]; 80 μg/ml each, P<0.05
  intracellular ATP content, reduced compared with oxidized coenzyme Q10: significantly lower
[1]
  intracellular ATP content compared with control group: decreased significantly
[5]; 20 mg/kg by gavage
  Number of ACFs, 1 crypt, percent of control group: (71)** %
  Number of ACFs, 2 crypts, percent of control group: (79) %
  Number of ACFs, 3 crypts, percent of control group: (100) %
  Number of ACFs, 4 crypts or more, percent of control group: (97) %
  Total ACF number/large intestine specimen, percent of control group: (80) %
  Total ACs number/large intestine specimen, percent of control group: (84) %
  Mean ACs number/focus: 1.77 ± 0.16
  Number of ACFs formed in the large intestine, 1 crypt: 47 ± 12
  Number of ACFs formed in the large intestine, 2 crypts: 39 ± 9
  Number of ACFs formed in the large intestine, 3 crypts: 18 ± 12
  Number of ACFs formed in the large intestine, 4 crypts or more: 7 ± 6
  Total ACF number/large intestine specimen: 113 ± 32
  Total ACs number/large intestine specimen: 214 ± 81
[5]; 50 mg/kg by gavage
  Number of ACFs, 1 crypt, percent of control group: (61)*** %
  Number of ACFs, 2 crypts, percent of control group: (70)** %
  Number of ACFs, 3 crypts, percent of control group: (80) %
  Number of ACFs, 4 crypts or more, percent of control group: (78) %
  Total ACF number/large intestine specimen, percent of control group: (74)* %
  Total ACs number/large intestine specimen, percent of control group: (71)* %
  Mean ACs number/focus: 1.76 ± 0.33
  Number of ACFs formed in the large intestine, 1 crypt: 40 ± 10
  Number of ACFs formed in the large intestine, 2 crypts: 35 ± 11
  Number of ACFs formed in the large intestine, 3 crypts: 15 ± 7
  Number of ACFs formed in the large intestine, 4 crypts or more: 6 ± 4
  Total ACF number/large intestine specimen: 104 ± 26
  Total ACs number/large intestine specimen: 181 ± 54
[5]; 20 and 50 mg/kg by gavage, male F344 rats
  gross condition, mortality, food consumption, and body weight during the treatment period: no changes associated with administration of the test substance were observed
[5]; 20 and 50 mg/kg by gavage, statistically significant in the 50 mg/kg group
  total ACF number and total crypt number per large intestine specimen compared with the control group: decreased
[5]; 20 and 50 mg/kg by gavage, vs control group
  total ACF number for 1-crypt ACF or 2-crypt ACF: decreased significantly
[3]; 0.12 μg/ml
  ATP level: 277.21 ± 46.02**† nM
[3]; 0.98 μg/ml
  ATP level: 267.24 ± 20.72** nM
[3]
  intracellular ATP levels compared with solvent control: significantly elevated
  intracellular ATP levels, reduced compared with oxidized coenzyme Q10: significantly elevated
